Key:
[1] = target: Vascular endothelial growth factor receptor 2 (Homo sapiens, UniProt P35968); type: functional
[2] = target: T1, Alpha-2A adrenergic receptor (Homo sapiens, UniProt P08913); type: functional, cell-based
T1 sequence (P08913 whole entry): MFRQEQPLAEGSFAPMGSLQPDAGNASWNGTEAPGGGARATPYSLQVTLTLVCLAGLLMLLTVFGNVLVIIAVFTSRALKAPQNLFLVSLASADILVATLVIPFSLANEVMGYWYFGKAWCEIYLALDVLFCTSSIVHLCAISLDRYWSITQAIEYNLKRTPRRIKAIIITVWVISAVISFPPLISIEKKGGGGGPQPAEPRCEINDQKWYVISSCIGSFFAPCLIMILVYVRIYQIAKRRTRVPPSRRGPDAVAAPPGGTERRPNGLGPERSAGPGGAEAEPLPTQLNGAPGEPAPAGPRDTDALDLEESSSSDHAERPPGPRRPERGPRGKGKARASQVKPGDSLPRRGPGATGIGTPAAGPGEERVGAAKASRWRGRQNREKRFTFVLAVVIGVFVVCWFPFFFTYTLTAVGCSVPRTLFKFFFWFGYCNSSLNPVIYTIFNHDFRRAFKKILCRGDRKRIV

[3] = target: Beta-1 adrenergic receptor (Homo sapiens, UniProt P08588); type: functional
[4] = target: Neuronal acetylcholine receptor subunit alpha-4 (Homo sapiens, UniProt P43681)
D(1A) dopamine receptor = D(1A) dopamine receptor (Homo sapiens, UniProt P21728); type: functional, cell-based
[5] = target: Growth hormone secretagogue receptor type 1 (Homo sapiens, UniProt Q92847)
[6] = target: T2, 5-hydroxytryptamine receptor 1A (Homo sapiens, UniProt P08908); type: functional, cell-based
T2 sequence (P08908 whole entry): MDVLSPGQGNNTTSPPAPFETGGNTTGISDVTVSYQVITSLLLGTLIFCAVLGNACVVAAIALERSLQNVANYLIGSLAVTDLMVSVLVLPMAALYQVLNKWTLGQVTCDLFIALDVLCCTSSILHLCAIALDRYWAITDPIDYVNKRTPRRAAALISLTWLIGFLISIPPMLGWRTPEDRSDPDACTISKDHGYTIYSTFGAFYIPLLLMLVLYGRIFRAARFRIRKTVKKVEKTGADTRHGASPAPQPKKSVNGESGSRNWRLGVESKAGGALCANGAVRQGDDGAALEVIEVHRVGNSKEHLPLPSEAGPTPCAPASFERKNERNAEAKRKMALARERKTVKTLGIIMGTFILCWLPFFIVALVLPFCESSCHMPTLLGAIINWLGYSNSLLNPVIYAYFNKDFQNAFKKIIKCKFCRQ

[7] = target: 5-hydroxytryptamine receptor 2B (Homo sapiens, UniProt P41595); type: functional, cell-based
Progesterone receptor = target: T3, Progesterone receptor (Homo sapiens, UniProt P06401); type: functional
T3 sequence (P06401 whole entry): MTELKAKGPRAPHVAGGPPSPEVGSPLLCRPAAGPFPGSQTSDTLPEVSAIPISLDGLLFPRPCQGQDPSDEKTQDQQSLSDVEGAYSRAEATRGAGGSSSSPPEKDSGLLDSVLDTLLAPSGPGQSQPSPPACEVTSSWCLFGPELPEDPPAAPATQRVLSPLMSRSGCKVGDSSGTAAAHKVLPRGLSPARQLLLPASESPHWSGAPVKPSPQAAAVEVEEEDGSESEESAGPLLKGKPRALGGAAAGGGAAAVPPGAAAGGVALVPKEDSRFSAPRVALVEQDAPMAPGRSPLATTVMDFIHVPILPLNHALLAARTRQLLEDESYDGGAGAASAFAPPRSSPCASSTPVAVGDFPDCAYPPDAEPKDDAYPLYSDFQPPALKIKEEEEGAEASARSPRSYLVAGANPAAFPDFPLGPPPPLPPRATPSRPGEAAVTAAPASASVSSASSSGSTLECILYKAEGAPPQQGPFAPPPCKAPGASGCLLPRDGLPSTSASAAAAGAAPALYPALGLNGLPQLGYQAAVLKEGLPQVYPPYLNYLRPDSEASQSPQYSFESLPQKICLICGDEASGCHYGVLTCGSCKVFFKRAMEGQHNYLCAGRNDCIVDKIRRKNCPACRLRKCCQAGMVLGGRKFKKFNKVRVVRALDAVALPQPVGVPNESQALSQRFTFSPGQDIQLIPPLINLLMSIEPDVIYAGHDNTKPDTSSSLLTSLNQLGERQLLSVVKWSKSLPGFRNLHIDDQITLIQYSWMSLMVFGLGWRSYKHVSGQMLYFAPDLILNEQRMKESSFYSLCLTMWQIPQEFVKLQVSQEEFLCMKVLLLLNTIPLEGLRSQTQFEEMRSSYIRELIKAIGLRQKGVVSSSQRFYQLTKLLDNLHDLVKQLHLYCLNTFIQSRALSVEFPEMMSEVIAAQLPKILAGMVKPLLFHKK

Histamine H3 receptor = Histamine H3 receptor (Homo sapiens, UniProt Q9Y5N1)
Note: assay procedure not described here.

Sequence of Histamine H3 receptor (Q9Y5N1 whole entry): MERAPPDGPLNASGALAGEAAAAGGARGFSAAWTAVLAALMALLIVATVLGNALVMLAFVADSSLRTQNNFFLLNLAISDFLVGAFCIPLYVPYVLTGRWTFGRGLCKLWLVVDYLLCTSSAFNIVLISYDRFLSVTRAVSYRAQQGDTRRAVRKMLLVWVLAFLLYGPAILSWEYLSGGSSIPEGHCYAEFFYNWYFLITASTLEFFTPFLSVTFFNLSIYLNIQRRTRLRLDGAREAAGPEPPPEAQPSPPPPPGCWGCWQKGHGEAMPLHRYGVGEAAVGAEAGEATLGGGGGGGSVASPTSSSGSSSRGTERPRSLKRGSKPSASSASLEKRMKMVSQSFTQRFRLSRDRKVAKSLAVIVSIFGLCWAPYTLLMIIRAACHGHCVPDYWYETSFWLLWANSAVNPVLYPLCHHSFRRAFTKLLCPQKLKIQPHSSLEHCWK
Sequence of Neuronal acetylcholine receptor subunit alpha-4 (P43681 whole entry): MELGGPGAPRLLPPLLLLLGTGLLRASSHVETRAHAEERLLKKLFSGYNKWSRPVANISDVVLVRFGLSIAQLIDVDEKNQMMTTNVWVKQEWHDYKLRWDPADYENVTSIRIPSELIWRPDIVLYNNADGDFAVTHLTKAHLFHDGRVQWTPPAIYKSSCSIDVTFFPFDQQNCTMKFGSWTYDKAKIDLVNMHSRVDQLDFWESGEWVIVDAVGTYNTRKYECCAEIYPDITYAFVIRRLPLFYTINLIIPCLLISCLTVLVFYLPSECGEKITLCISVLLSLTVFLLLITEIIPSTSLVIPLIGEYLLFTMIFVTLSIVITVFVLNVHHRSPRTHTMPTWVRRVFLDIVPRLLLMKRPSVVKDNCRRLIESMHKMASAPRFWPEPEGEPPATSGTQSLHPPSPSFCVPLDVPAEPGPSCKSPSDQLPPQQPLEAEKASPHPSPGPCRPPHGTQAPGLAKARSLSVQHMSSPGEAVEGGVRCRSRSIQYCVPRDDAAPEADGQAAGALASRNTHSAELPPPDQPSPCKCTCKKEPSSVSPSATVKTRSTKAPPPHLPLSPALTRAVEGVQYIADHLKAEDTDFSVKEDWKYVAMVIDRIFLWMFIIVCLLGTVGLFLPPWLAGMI
Sequence of 5-hydroxytryptamine receptor 2B (P41595 whole entry): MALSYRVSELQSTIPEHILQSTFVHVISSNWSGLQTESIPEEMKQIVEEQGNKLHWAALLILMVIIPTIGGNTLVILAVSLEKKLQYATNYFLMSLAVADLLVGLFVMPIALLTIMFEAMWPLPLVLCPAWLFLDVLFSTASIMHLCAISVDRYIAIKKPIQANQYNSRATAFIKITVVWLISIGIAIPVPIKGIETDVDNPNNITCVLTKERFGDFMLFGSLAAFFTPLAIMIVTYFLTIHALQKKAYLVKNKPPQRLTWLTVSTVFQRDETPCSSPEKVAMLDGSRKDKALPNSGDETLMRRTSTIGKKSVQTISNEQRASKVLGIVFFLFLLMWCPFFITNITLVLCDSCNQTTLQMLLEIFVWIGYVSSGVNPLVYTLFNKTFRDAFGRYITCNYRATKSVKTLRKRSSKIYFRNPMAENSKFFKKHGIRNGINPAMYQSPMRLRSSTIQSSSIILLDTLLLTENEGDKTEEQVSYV
Sequence of Vascular endothelial growth factor receptor 2 (P35968 whole entry): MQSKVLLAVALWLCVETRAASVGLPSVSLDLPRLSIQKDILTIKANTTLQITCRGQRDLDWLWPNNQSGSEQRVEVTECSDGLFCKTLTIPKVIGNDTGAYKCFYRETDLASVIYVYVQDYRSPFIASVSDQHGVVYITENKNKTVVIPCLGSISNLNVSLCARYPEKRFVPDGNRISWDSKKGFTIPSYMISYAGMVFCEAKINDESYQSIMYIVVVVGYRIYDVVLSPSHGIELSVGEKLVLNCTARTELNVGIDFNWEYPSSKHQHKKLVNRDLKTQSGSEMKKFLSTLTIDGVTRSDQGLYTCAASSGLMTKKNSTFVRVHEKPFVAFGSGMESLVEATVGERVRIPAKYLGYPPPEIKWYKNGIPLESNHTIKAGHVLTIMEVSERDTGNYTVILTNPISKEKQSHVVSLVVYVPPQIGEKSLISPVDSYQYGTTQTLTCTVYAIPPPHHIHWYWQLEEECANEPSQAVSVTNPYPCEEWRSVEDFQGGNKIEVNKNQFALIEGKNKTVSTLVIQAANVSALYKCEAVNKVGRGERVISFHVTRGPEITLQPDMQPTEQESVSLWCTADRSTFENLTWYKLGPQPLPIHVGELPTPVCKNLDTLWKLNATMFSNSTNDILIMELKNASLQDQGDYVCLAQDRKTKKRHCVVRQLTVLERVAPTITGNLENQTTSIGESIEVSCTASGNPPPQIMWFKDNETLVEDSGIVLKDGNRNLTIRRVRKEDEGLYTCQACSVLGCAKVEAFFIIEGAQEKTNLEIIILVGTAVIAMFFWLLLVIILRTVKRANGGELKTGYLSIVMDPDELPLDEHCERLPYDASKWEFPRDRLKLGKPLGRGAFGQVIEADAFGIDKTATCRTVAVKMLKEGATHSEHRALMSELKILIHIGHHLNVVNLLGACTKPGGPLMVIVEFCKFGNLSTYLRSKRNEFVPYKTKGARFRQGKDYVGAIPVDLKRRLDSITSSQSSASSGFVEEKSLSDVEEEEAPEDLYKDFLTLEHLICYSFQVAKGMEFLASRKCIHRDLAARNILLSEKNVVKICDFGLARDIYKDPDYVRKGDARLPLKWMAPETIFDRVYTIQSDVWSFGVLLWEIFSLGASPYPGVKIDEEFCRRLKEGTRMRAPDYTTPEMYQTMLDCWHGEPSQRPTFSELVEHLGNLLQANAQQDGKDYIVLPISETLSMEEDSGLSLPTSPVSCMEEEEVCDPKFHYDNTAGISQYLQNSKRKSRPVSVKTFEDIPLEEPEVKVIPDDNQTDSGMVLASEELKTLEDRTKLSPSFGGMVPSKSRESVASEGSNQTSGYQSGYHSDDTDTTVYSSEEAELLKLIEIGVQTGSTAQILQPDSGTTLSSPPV
Sequence of Beta-1 adrenergic receptor (P08588 whole entry): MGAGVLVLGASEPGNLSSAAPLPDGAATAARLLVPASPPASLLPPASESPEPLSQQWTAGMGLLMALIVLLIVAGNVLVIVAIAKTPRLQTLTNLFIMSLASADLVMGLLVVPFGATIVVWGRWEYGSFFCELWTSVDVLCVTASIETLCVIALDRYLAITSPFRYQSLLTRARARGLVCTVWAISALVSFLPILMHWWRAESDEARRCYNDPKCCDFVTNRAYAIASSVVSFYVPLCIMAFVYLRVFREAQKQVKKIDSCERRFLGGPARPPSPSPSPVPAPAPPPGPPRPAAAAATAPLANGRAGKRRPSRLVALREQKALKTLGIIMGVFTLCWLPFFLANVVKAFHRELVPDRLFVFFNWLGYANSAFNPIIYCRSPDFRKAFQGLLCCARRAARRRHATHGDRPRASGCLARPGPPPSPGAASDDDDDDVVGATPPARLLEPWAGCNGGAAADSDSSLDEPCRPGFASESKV
Sequence of Growth hormone secretagogue receptor type 1 (Q92847 whole entry): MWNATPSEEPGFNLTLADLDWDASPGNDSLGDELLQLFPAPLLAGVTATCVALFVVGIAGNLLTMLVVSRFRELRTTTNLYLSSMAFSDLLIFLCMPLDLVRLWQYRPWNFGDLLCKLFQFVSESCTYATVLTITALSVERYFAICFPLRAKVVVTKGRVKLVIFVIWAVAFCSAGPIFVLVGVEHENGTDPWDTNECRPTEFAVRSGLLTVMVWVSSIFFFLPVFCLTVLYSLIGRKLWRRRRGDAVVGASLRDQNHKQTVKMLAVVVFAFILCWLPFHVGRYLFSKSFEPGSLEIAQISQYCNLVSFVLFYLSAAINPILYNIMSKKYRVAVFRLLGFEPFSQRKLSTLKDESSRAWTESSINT
Sequence of D(1A) dopamine receptor (P21728 whole entry): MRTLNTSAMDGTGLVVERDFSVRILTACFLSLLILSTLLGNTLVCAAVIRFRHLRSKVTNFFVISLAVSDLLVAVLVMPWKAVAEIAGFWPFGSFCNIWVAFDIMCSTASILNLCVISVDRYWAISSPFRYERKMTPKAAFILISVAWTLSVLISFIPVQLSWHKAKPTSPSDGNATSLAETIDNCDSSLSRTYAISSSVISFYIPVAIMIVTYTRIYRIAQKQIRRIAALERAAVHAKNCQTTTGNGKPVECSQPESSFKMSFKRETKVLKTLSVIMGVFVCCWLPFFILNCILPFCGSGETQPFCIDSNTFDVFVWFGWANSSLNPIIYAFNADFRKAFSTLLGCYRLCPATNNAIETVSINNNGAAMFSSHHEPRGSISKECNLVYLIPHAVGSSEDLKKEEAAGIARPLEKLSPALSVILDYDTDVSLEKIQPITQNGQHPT

Row | AC50 [2] [µM] | AC50 [3] [µM] | AC50 [4] [µM] | AC50 (D(1A) dopamine receptor) [µM] | AC50 [5] [µM] | AC50 [6] [µM] | AC50 [7] [µM] | AC50 (Progesterone receptor) [µM] | AC50 (Histamine H3 receptor) [µM] | Structure (SMILES) | AC50 [1] [µM]
1 |  |  |  |  |  |  |  |  |  | CC(=O)NCCCCCC(=O)O [ACEXAMIC ACID] | > 30
2 |  |  |  |  |  |  |  |  |  | CC(C)[C@@H]1CC[C@@H](C)C[C@H]1O [LEVOMENTHOL] | > 30
3 |  |  |  |  |  |  |  |  |  | C[C@H]1O[C@@H](O[C@H]2CC[C@@]3(C)[C@H](CC[C@@H]4[C@@H]3C[C@@H](O)[C@]3(C)[C@@H](C5=CC(=O)OC5)CC[C@]43O)C2)C[C@H](O)[C@@H]1O[C@H]1C[C@H](O)[C@H](O[C@H]2C[C@H](O)[C@H](O[C@@H]3O[C@H](CO)[C@@H](O)[C@H](O)[C@H]3O)[C@@H](C)O2)[C@@H](C)O1 [DESLANOSIDE] | > 30
4 |  |  |  |  |  |  |  |  |  | Cc1ccsc1C(=CCCN1CCC[C@@H](C(=O)O)C1)c1sccc1C [TIAGABINE] | > 30
5 |  |  |  |  |  |  |  |  |  | O=C(NNCS(=O)(=O)O)c1ccncc1 [METHANIAZIDE] | > 30
6 |  |  |  |  |  |  |  |  |  | C=N[C@@H](C(=O)N[C@@H]1C(=O)N2[C@@H]1SC(C)(C)[C@@H]2C(=O)O)c1ccccc1 [METAMPICILLIN] | > 30
7 |  |  |  |  |  |  |  |  |  | Cc1cc(=O)[nH]c(=S)[nH]1 [METHYLTHIOURACIL] | > 30
8 |  |  |  |  |  |  |  |  |  | CC[C@]12CCCN3CCc4c(n(c5ccccc45)[C@@](O)(C(=O)OC)C1)[C@@H]32 [VINCAMINE] | > 30
9 |  |  |  |  |  |  |  |  |  | C[N+]1(C)CCCC(OC(=O)C(O)(c2ccccc2)c2ccccc2)C1 (stereo not drawn) [MEPENZOLATE] | > 30
10 |  |  |  |  |  |  |  |  |  | CCCCC(CC)CN1CN(CC(CC)CCCC)CC(C)(N)C1 (stereo not drawn) [HEXETIDINE] | > 30
11 |  |  |  |  |  |  |  |  |  | C[C@]12C=CC(=O)C=C1CC[C@H]1[C@@H]3C[C@@H](O)[C@](O)(C(=O)CO)[C@@]3(C)C[C@H](O)[C@@]12F [TRIAMCINOLONE] | > 30
12 |  |  |  |  |  |  |  |  |  | C[N+](C)(C)CCOC(=O)CCC(=O)OCC[N+](C)(C)C [SUXAMETHONIUM] | > 30
13 |  |  |  |  |  |  |  |  |  | C=CC(=O)Nc1cccc(Oc2nc(Nc3ccc(N4CCN(C)CC4)cc3)nc3ccsc23)c1 [OLMUTINIB] | 2.06
14 |  |  |  |  |  |  |  |  |  | COc1c2occc2c(OC)c2c(=O)cc(C)oc12 [KHELLIN] | > 30
15 |  |  |  |  |  |  |  |  |  | C=C(C)CNc1ccc(C(C)C(=O)O)cc1 (stereo not drawn) [ALMINOPROFEN] | > 30
16 | > 30 | > 30 | > 30 | > 30 | > 30 | > 30 | > 30 | > 30 | > 30 | CC1(C)S[C@@H]2[C@H](NC(=O)C(C(=O)O)c3ccccc3)C(=O)N2[C@H]1C(=O)O (stereo partly drawn) [CARBENICILLIN] | 
17 | > 10 | > 10 | > 10 | > 10 | > 10 | > 10 | > 10 | > 10 | > 10 | CCCc1cc(=O)[nH]c(=S)[nH]1 [PROPYLTHIOURACIL] | 
18 | > 30 | > 30 | > 10 | > 30 | > 30 | > 30 | 16 | > 30 | > 30 | CCOc1nc2cccc(C(=O)O)c2n1Cc1ccc(-c2ccccc2-c2nnn[nH]2)cc1 | 
19 | > 10 | > 30 | > 30 | > 30 | > 30 | > 30 | 6.3 | > 30 | 12.7 | Cc1nc(Nc2ncc(C(=O)Nc3c(C)cccc3Cl)s2)cc(N2CCN(CCO)CC2)n1 [DASATINIB] | 
20 | > 30 | > 30 | > 30 | > 30 | > 30 | > 30 | > 30 | > 30 | > 30 | CC=CC1=C(C(=O)O)N2C(=O)[C@@H](NC(=O)[C@H](N)c3ccc(O)cc3)[C@H]2SC1 [CEFPROZIL] | 
21 | > 30 | > 30 | > 30 | > 30 | > 30 | > 30 | > 30 | > 30 | > 30 | CC(=O)Nc1ccc(CC(=O)O)cc1 [ACTARIT] | 

Row | Structure (SMILES) | AC50 [2] [µM] | AC50 [3] [µM] | AC50 [4] [µM] | AC50 (D(1A) dopamine receptor) [µM] | AC50 [5] [µM] | AC50 [6] [µM] | AC50 [7] [µM] | AC50 (Progesterone receptor) [µM] | AC50 (Histamine H3 receptor) [µM] | AC50 [1] [µM]
22 | COc1cc(C(C)=O)ccc1OCCCN1CCC(c2noc3cc(F)ccc23)CC1 [ILOPERIDONE] | 0.45 | > 30 | 2 | > 30 | > 30 | 0.055 | 1.8 | > 30 | > 30 | 
